Experiments:
[1] = system: recombinant human anti-SARS-CoV antibody 03-018; format: binding; set-up: Binding of antibody 03-018 to linear peptides of the N protein of SARS-CoV Urbani / Binding of antibody 03-018 to looped/cyclic peptides of the N protein of SARS-CoV Urbani: unit not given here
[2] = system: control sera (pooled serum of ten healthy LUMC hospital workers; commercial negative donor pooled serum from the Dutch bloodbank); format: binding, human; set-up: Binding of Control serum LUMC to linear peptides / Binding of Control serum Blood-bank to linear peptides / Binding of Control serum LUMC to looped peptides / Binding of Control Serum Blood-Bank to Looped peptides / Binding of Control serum LUMC to linear peptides of the protein M of SARS-CoV Urbani / Binding of Control serum Blood-bank to linear peptides of the protein M of SARS-CoV Urbani / Binding of Control serum LUMC to looped peptides of the protein M of SARS-CoV Urbani / Binding of Control Serum Blood-Bank to Looped peptides of the protein M of SARS-CoV Urbani: unit not given here
[3] = system: rabbit serum obtained by immunizing a rabbit with the SARS-CoV strain Frankfurt 1; format: binding; set-up: Binding of a rabbit serum to linear peptides / Binding of a rabbit serum to looped peptides / Rabbit serum linear peptides / Rabbit serum looped peptides / Binding of a rabbit serum to linear peptides of protein N of SARS-CoV Urbani (Rabbit serum linear peptides) / Binding of a rabbit serum to looped/cyclic peptides of protein N of SARS-CoV Urbani (Rabbit serum looped peptides): unit not given here
[4] = system: antibodies in sera from SARS patients (sera 1a, 1b, 2, 6, 37, 62, London, SARS-yellow, SARS-green); format: binding, human; set-up: Binding of serum 6 to linear peptides of protein X1 of SARS-CoV Urbani / Binding of serum 37 to linear peptides of protein X1 of SARS-CoV Urbani / Binding of serum 6 to looped/cyclic peptide (PEPSCAN-ELISA) / Binding of serum 37 to looped/cyclic peptide (PEPSCAN-ELISA) / Binding of serum 37 to looped/cyclic peptides of protein X1 of SARS-CoV Urbani / Binding of serum 6 to linear peptides of protein X2 / Binding of serum 37 to linear peptides of protein X2 / Binding of serum 37 to looped/cyclic peptides of protein X2 of SARS-CoV Urbani / Binding of serum 6 to linear peptides of protein M of SARS-CoV Urbani / Binding of serum 37 to linear peptides of protein M of SARS-CoV Urbani / Binding of serum 6 to looped/cyclic peptides of protein M of SARS-CoV Urbani / Binding of serum 37 to looped/cyclic peptides of protein M of SARS-CoV Urbani / Binding of serum 6 to linear peptides of protein X3 of SARS-CoV Urbani / Binding of serum 37 to linear peptides of protein X3 of SARS-CoV Urbani / Binding of serum 37 to looped/cyclic peptides of protein X3 of SARS-CoV Urbani / Binding of serum 6 to linear peptides of protein X4 of SARS-CoV Urbani / Binding of serum 37 to linear peptides of protein X4 of SARS-CoV Urbani / Binding of serum 37 to looped/cyclic peptides of protein X4 of SARS-CoV Urbani / Binding of serum 6 to linear peptides of protein X5 of SARS-CoV Urbani / Binding of serum 37 to linear peptides of protein X5 of SARS-CoV Urbani / Binding of serum 37 to looped/cyclic peptides of protein X5 of SARS-CoV Urbani / Binding of serum 6 to linear peptides of protein N of SARS-CoV Urbani / Binding of serum 37 to linear peptides of protein N of SARS-CoV Urbani / Binding of serum 6 to linear peptide (PEPSCAN-ELISA) / Binding of serum 1a to looped/cyclic peptides of protein N of SARS-CoV Urbani / Binding of serum 1b to looped/cyclic peptides of protein N of SARS-CoV Urbani / Binding of serum 2 to looped/cyclic peptides of protein N of SARS-CoV Urbani / Binding of serum 6 to looped/cyclic peptides of protein N of SARS-CoV Urbani / Binding of serum 37 to looped/cyclic peptides of protein N of SARS-CoV Urbani / Binding of serum 62 to looped/cyclic peptides of protein N of SARS-CoV Urbani / Binding of serum London to looped/cyclic peptides of protein N of SARS-CoV Urbani / Binding of serum SARS-green to looped/cyclic peptides of protein N of SARS-CoV Urbani: unit not given here

Sequence | Binding of antibody 03-018 to linear peptides of the N protein of SARS-CoV Urbani [1] | Binding of antibody 03-018 to looped/cyclic peptides of the N protein of SARS-CoV Urbani [1] | Binding of Control Serum Blood-Bank to Looped peptides [2] | Binding of Control serum Blood-bank to linear peptides [2] | Binding of Control serum LUMC to linear peptides [2] | Binding of Control serum LUMC to looped peptides [2] | Binding of a rabbit serum to linear peptides of protein N of SARS-CoV Urbani (Rabbit serum linear peptides) [3] | Binding of a rabbit serum to looped/cyclic peptides of protein N of SARS-CoV Urbani (Rabbit serum looped peptides) [3] | further results
ASGGGETALALLLLD | 0.1 | 0.2 | 1.3 | 0.8 | 0.9 | 1.3 | 0.1 | 0.4 | –
GTTLPKGFYAEGSRG | 0.1 | 0.2 | 0.5 | 0.6 | 0.6 | 0.6 | 0.2 | 0.3 | –
KLDDKDPQFKDNVIL | 0.1 | 0.2 | – | – | – | – | 0.1 | 0.2 | Control Serum Blood-Bank Looped peptides [2]: 0.7; Control serum Blood-bank linear peptides [2]: 0.8; Control serum LUMC linear peptides [2]: 0.7; Control serum LUMC looped peptides [2]: 0.8
KPRQKRTATKQYNVT | 0.1 | 0.2 | 0.4 | 0.8 | 0.7 | 0.4 | 0.3 | 0.0 | –
KRTATKQYNVTQAFG | 0.1 | 0.2 | 0.6 | 0.7 | 0.8 | 0.6 | – | – | Recognition of the peptide by the rabbit serum [3]: recognized
LQLPQGTTLPKGFYA | 0.1 | 0.2 | 0.5 | 1.0 | 0.8 | 0.5 | 0.2 | 1.0 | –
MASGGGETALALLLL | 0.1 | 0.3 | 0.7 | 0.7 | 0.6 | 0.9 | 0.2 | 1.1 | –
NAATVLQLPQGTTLP | 0.1 | 0.2 | 0.6 | 0.7 | 0.5 | 0.4 | 0.2 | 0.0 | –
PARMASGGGETALAL | 0.1 | 0.3 | 0.7 | 1.0 | 0.8 | 0.9 | 0.2 | 0.7 | –
PQGTTLPKGFYAEGS | 0.1 | 0.2 | 0.6 | 0.7 | 0.6 | 0.6 | 0.1 | 0.5 | –
RMASGGGETALALLL | 0.1 | 0.3 | 0.8 | 0.6 | 0.5 | 0.8 | 0.2 | 0.4 | –
RQKRTATKQYNVTQA | 0.1 | 0.2 | 0.9 | 0.9 | 0.8 | 0.8 | – | – | Recognition of the peptide by the rabbit serum [3]: recognized
SPARMASGGGETALA | 0.1 | 0.1 | 0.1 | 0.9 | 0.8 | 0.2 | 0.2 | 0.0 | –
TPGSSRGNSPARMAS | 0.1 | 0.3 | – | – | – | – | – | – | Binding of serum 1a to linear peptide (PEPSCAN-ELISA) [4]: 0.3; Binding of serum 1a to looped/cyclic peptides of protein N of SARS-CoV Urbani [4]: 0.4; Binding of serum 1b to linear peptide (PEPSCAN-ELISA) [4]: 0.2; Binding of serum 1b to looped/cyclic peptides of protein N of SARS-CoV Urbani [4]: 0.2; Binding of serum 2 to linear peptide (PEPSCAN-ELISA) [4]: 0.3; Binding of serum 2 to looped/cyclic peptides of protein N of SARS-CoV Urbani [4]: 0.5; Binding of serum 6 to linear peptide (PEPSCAN-ELISA) [4]: 0.2; Binding of serum 6 to looped/cyclic peptides of protein N of SARS-CoV Urbani [4]: 0.4; Binding of serum 37 to linear peptide (PEPSCAN-ELISA) [4]: 0.8; Binding of serum 37 to looped/cyclic peptides of protein N of SARS-CoV Urbani [4]: 0.6; Binding of serum 62 to linear peptide (PEPSCAN-ELISA) [4]: 0.7; Binding of serum 62 to looped/cyclic peptides of protein N of SARS-CoV Urbani [4]: 0.6; Binding of serum London to linear peptide (PEPSCAN-ELISA) [4]: 0.5; Binding of serum London to looped/cyclic peptides of protein N of SARS-CoV Urbani [4]: 0.5; Binding of serum SARS-green to linear peptide (PEPSCAN-ELISA) [4]: 0.6; Binding of serum SARS-green to looped/cyclic peptides of protein N of SARS-CoV Urbani [4]: 0.4; Binding of serum SARS-yellow to linear peptide (PEPSCAN-ELISA) [4]: 0.8; Binding of serum SARS-yellow to looped/cyclic peptides of protein N of SARS-CoV Urbani [4]: 0.5; Recognition of the peptide by the rabbit serum [3]: recognized

Reference: patent publication US20070128217A1 (priority 2003, published 2007)
